Columns and labels:
[1] = Stability of synthesized T3-sulfate; type: physicochemical; conditions: when not stored in liquid form in appropriate buffer
From the text: Bacterial sulfatase (Sigma) was used as directed. We found little evidence of the presence of thyroxine sulfate in urine in our preliminary studies but significant levels of triiodothyronine-sulfate were present. To confirm our data, triodothyronine sulfate was synthesized by methods of Levitz (personal communication) for radioactive estrone glucuronide. T3-sulfate gave a unique spectrum with a major absorption maximum at 362 nm as compared to triiodothyronine whose major absorption maxima occurred at 318.

[2] = Conjugates of T4 and T3 in patients' urine by enzymatic hydrolysis and IMx measurement; parameters: species or system human
Experimental: Thyroxine glucuronidate in urine was hydrolysed with Sigma bacterial β-glucuronidase. The time interval for hydrolysis was tested from 1 to 24 hours under the conditions recommended by Sigma. It was also hydrolyzed by 0.2 N hydrochloric acid at pH 2 over a period of less than one hour.
Bacterial sulfatase (Sigma) was used as directed. […] To confirm our data, triodothyronine sulfate was synthesized by methods of Levitz (personal communication) for radioactive estrone glucuronide.

[3] = in vivo; cited from earlier work
[4] = Stability of urinary T3 for time and temperature; type: physicochemical
[5] = Stability of urine standard sub-pools measured monthly; type: physicochemical; conditions: 2 ml vials stored at -20 degrees Centigrade
Experimental: These sub-pools were aliquoted into 2 ml vials and stored as above.

[6] = stored with at least 20% (v/v) of buffer

N[C@@H](Cc1cc(I)c(Oc2ccc(OS(=O)(=O)O)c(I)c2)c(I)c1)C(=O)O [T3-sulfate, triiodothyronine-sulfate]
stability of T3-sulfate [1]: unstable and rapidly deteriorated | urinary concentration of conjugate relative to parent compound ([2]; human urine, before and after hydrolysis): about one-third to one-half

N[C@@H](Cc1ccc(Oc2cc(I)c(O)c(I)c2)c(I)c1)C(=O)O [RT3]
metabolic clearance rate [3]: 111 L/d/70 kg

NC(Cc1cc(I)c(Oc2cc(I)c(O)c(I)c2)c(I)c1)C(=O)O (centres unmarked) [T4, O-(4-hydroxy-3,5-didiodophenyl)-3,5-diiodotyrosine]
metabolic clearance rate [3]: 1.2 L/d/70 kg | form of conjugation in urine [2]: almost exclusively as a glucuronide

N[C@@H](Cc1cc(I)c(Oc2ccc(O)c(I)c2)c(I)c1)C(=O)O [T3, O-(4-hydroxy-3-iodophenyl)-3,5-diiodo-L-tyrosine]
stability of T3 standards ([4]; all conditions of time and temperature): stable under all conditions | stability of urinary T3, frozen state [4, 6]: stable for months | stability of urinary T3, room temperature [4, 6]: over 3 days | stability of urinary T3, native state ([4]; without buffer, frozen and room temperature): deteriorated in both environments at an accelerated rate | metabolic clearance rate [3]: 24 L/d/70 kg | concentration in urine standard sub-pools over time [5]: unchanged for over a year

Reference: US20020076827A1, “Methods for diagnosing thyroid conditions and for monitoring thyroxine therapy” (priority 2000, published 2002)
